The numbers were not newly measured in patent US10555523B2, “Self indicating antimicrobial chemistry” (ECOLAB USA INC, priority 2015, dated 2020), which cites them from elsewhere.

The test system of the data set is microorganisms.

With `CC(=O)OO` [Peracetic acid], the “concentration needed for biocidal activity” value is “greater than 80 part per million”.
